Measurements: patent publication US20090023806A1, “ALUMINUM-STORAGE DISEASE IMPROVING AGENT” (AJINOMOTO CO. INC, priority 2006, published 2009)

Columns and labels:
[1] = Citric acid concentration in patient blood plasma during dialysis with citric acid-containing dialysate; assay type: in vivo, human; conditions: 1.7 mEq/L of citric acid added to a dialysate during a dialysis treatment
Method: The present invention provides a dialysate comprising aluminum complexing agents. Preferably, the aluminum complexing agent is citric acid. […] Meanwhile, it had been confirmed that, when 1.7 mEq/L of citric acid had been added to a dialysate during a dialysis treatment, the citric acid concentration in the patient blood plasma had risen by about 3 mg/dL. In the following examples, how this phenomenon effects on the aluminum kinetics in vivo was examined.

[2] = Elimination of aluminum accumulated in rat thigh bones by repeated intravenous citric acid; assay type: in vivo; conditions: aluminum-loaded male rats, 0.75% citric acid solution i.v. 4 hours, three times a week for 4 weeks
Method: After aluminum accumulations were made in rat tissues, citric acid as an aluminum complexing agent was administered intravenously repeatedly to examine whether citric acid would eliminate the aluminum accumulated in the tissues.
Aluminum was administered to male rats intraperitoneally repeatedly once a day for 6 weeks at 2 mg/kg. Then, the rats were cannulated in the jugular vein.
From the jugular cannula, 0.75% citric acid solution was administered repeatedly taking the same dialysis time and frequency as in human; that is, for 4 hours continuously intravenously three times a week for 4 weeks.
For the control group, physiological saline was administered in the same means. Each group had 4 to 6 rats.
After the 4-week administration, thigh bones were collected from the rats to compare the aluminum levels in the thigh bones of both groups using the ratios of the aluminum peak area analyzed by the HPLC method against the peak area of internal standard substance as an indicator.

[3] = Protein-binding rate of aluminum in rat plasma by ultrafiltration, with citric acid added; assay type: in vitro ADME; conditions: aluminum 50 μg/L, citric acid final concentration raised by 3 mg/dL, 37° C. 60 minutes, no citric acid: 23.4±10.0%
Method: Whether aluminum combined to proteins chelates with citric acid and is dissociated from the proteins in rat plasma was examined.
A used indicator was the protein-binding rates (by ultrafiltration method) when citric acid was added and when not added.
Aluminum was added to rat blood plasma to make the concentration 50 μg/L, and citric acid was added there to make the final concentration rise by 3 mg/dL. Then, it was incubated at 37° C. for 60 minutes. After that, the solution was centrifuged in a centrifuge (Centrifree) to obtain about 100 μL of filtrate. The aluminum concentrations of the added sample, the supernatant and the filtrate were measured respectively by the HPLC method (Chromatoracer Al; SHINO-TEST Corp.) to calculate the protein-binding rates.

## O=C(O)CC(O)(CC(=O)O)C(=O)O [citric acid]
[1]
  rise of citric acid concentration in patient blood plasma: about 3 mg/dL
[2]; P<0.05 Student's t-test
  thighbone aluminum levels compared with control group: statistically significantly lower
[2]; saline control 4.46±0.52, mean±S.D.
  thigh bone aluminum level: ratio of aluminum peak area (HPLC) against peak area of internal standard: 3.62±0.27
[3]
  free-aluminum percentage: 35.5±0.4%
